PMC10830516 (Current Research in Structural Biology, 2024)
Blank lines part the entries; values can stand above or below the molecule they belong to. Square brackets hold non-standard residues; d marks the D form. Peptide text beside a SMILES is read from it. * marks the point of attachment. Sta = CC(C)C[C@H](N)[C@@H](O)CC(=O)O; Isovaleryl = CC(C)CC(=O)*

Columns and labels:
PMII = details: cited from earlier work
plasmepsin II (PMII) = plasmepsin II (PMII) (Plasmodium falciparum, UniProt P46925); experiment: Inhibition of PMII hydrolysis of Hb-based fluorogenic peptide substrate; type: biochemical, P. falciparum
plasmepsin X (PMX) = plasmepsin X (PMX) (Plasmodium falciparum, UniProt Q8IAS0); experiment: Inhibition of PMX hydrolysis of Rh2N fluorogenic peptide substrate; type: biochemical, P. falciparum; details: Ki against PMX, mature PMX, pH 5.5, 1 μM Rh2N substrate; Ki by Cheng-Prusoff
plasmepsin X (PMX), sequence (Q8IAS0 235-573): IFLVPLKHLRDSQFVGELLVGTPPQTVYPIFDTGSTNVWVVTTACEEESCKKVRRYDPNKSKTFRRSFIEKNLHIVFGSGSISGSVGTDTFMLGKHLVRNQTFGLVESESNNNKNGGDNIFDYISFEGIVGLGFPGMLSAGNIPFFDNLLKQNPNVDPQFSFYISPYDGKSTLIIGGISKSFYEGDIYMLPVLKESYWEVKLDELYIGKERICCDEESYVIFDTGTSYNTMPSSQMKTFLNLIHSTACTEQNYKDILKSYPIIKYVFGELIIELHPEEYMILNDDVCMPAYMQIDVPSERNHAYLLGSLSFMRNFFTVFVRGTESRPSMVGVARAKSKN

plasmepsin II (PMII), sequence (P46925 125-453): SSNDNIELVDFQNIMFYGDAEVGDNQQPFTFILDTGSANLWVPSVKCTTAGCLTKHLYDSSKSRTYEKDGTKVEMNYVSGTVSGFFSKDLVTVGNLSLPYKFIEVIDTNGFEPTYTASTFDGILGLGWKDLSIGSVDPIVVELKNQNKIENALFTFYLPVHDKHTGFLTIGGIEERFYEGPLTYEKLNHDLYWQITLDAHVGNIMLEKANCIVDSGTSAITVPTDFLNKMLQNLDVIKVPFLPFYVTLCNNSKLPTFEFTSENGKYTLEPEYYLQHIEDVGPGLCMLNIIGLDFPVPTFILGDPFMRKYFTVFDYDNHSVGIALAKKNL

SMILES: CCCCCc1ccc(C(=O)N(Cc2ccc(-c3ccc(C(=O)N4CCCCC4)cc3)cc2)C2CCN(Cc3ccccn3)CC2)nc1 [2IGX]
IC50 (PMII; achiral inhibitors, ref Boss et al., 2006, Prade et al., 2005): 0.054 µM

Ki (plasmepsin II (PMII)): 2.4 µM
SMILES: CC(C)(C)NC(=O)[C@@H]1CN(Cc2cccnc2)CCN1C[C@@H](O)C[C@@H](Cc1ccccc1)C(=O)N[C@H]1c2ccccc2C[C@H]1O [IDV, Indinavir]

SMILES: Cc1cccc(C)c1OCC(=O)N[C@@H](Cc1ccccc1)[C@@H](O)C[C@H](Cc1ccccc1)NC(=O)[C@H](C(C)C)N1CCCNC1=O [LPV, Lopinavir]
Ki (plasmepsin X (PMX)): 14 µM | Ki (plasmepsin II (PMII)): 0.7 µM

SMILES: Cc1c(O)cccc1C(=O)N[C@@H](CSc1ccccc1)[C@H](O)CN1C[C@H]2CCCC[C@H]2C[C@H]1C(=O)NC(C)(C)C [NFV, Nelfinavir]
Ki (plasmepsin X (PMX)): 60 µM | Ki (plasmepsin II (PMII)): 1.4 µM

SMILES: CC(C)(C)NC(=O)[C@@H]1C[C@@H]2CCCC[C@@H]2CN1C[C@@H](O)[C@H](Cc1ccccc1)NC(=O)[C@H](CC(N)=O)NC(=O)c1ccc2ccccc2n1 [SQV, Saquinavir]
Ki (plasmepsin X (PMX)): 44 µM | Ki (plasmepsin II (PMII)): 1 µM

SMILES: CC(C)CC(=O)N[C@H](C(=O)N[C@H](C(=O)N[C@@H](CC(C)C)[C@@H](O)CC(=O)N[C@@H](C)C(=O)N[C@@H](CC(C)C)[C@@H](O)CC(=O)O)C(C)C)C(C)C [pepstatin A] (Isovaleryl-VV[Sta]A[Sta]-OH)
Ki (PMII; PMII complex PDB ID 1XDH, ref Silva et al., 1996): 6 pM
